The results in this text go back to US12029730B2, “Pharmaceutical composition for preventing or treating cancer, containing N-1H-benzimidazol-2-yl-3-(1H-pyrrole-1-yl)benzamide as active ingredient” (KOREA INSTITUTE OF RADIOLOGICAL & MEDICAL SCIENCES, priority 2018, dated 2024).

Holding throughout (format): cell-based, human
Series [1] relates to MCF7 cells. Briefly: 3D culture spheroid formation. As to conditions: MCF7 3D culture, AT13148 2 μM, GKI-1 10 μM, MKI-1 10 μM, FIG. 9. The method, then:
3D culture was performed according to the protocol of the manufacturing company TheWell Bioscience. It was inoculated into 24-wells containing a DMEM mixture containing 10,000 MCF7 cells in an MCF7 cell:hydrogel solution in a ratio of 1:3 (v/v) and VitroGel™ 3D-RGD diluted with 0.1% PBS in a ratio of 1:3 (v/v) of a hydrogel:diH2O. Thereafter, incubation was performed at 37° C. for 15 minutes to stabilize the VitroGel 3D-RGD hydrogel. To cover the hydrogel, the same volume of DMEM as the hydrogel was added, and the next day, the hydrogel was treated with a DMSO base drug containing DMSO, AT13148 (2 μM), GKI-1 (10 μM) and MKI-1 (10 μM). The medium was exchanged every 2 days for 14 to 20 days.

Series [2] concerns MCF7 cells. Put plainly: Tumorsphere formation assay. The settings on record: MCF7, cultured 15 days, compared to DMSO, FIG. 8. The method, then: A tumorsphere formation assay was performed in order to determine whether the selected MKI-1 can effectively reduce the formation of tumorsphere in cancer cells, Breast cancer cells MCF7 (2500-10000 cells) was suspended in serum-free DMEM/F12 (weIGENE) containing 1% penicillin, B-27 (1:50; invitrogen), 20 ng/mL epidermal cell growth factor (R&D Systems) and 20 ng/mL fibroblast growth factor (R&D Systems) and cultured on plates with low adhesion rate. After 24 hours, the cells were treated with MASTL kinase inhibitors (AT13148, MKI-1 and GKI-1), respectively, and cultured for 15 days, and then the diameter of the tumorsphere was measured and quantified, which was shown in FIG. 8.

Series [3] deals with MCF7 cells. Put plainly: Colony formation analysis. As to conditions: MCF7, cultured 15 days, compared to DMSO, FIG. 7. The method, then:
Colony formation analysis was performed to confirm whether the selected MKI-1 can effectively kill cancer cells. First, breast cancer cells MCF7 (500-1000 cells) were cultured in a 60 mm culture plate, and after 24 hours, it was treated with MASTL kinase inhibitors (AT13148, MKI-1 and GKI-1), respectively and cultured for 15 days. Cells were fixed and stained with […] to which methanol was added to quantify the number of colonies, which was shown in FIG. 7.

Another series has as its system MCF10A cells. Briefly: WST-8 cell viability assay, normal cell line MCF10A. As to conditions: 3.70, 11.11, 33.33 and 100 μM, FIG. 6. The method, then:
(§1) In addition, the cell line in this experiment was distributed from ATCC (American Type Culture Collection; Manassas, VA). Human-derived tumor cell lines, breast cancer cell lines MCF7 and T47D was cultured in DMEM medium containing 10% fetal bovine serum (FBS; HyClone, South Logan, UT) and 1% penicillin/streptomycin (Corning, NY, USA) at 37° C. and 5% CO2, and the BT549 breast cancer cell line was cultured in RPMI 1640 (Welgene, Daegu, Korea) as a medium used under the same conditions. Human-derived normal cell line MCF10A was cultured in DMEM/F12 (Invitrogen) medium containing 5% horse serum (Invitrogen), 1% penicillin/streptomycin, 20 ng/ml EGF (Peprotech, London, UK), […] (Sigma-Aldrich, MO, USA), 100 ng/ml cholera toxin (Cholera Toxin, Sigma-Aldrich) and 10 μg Insulin (Sigma-Aldrich) at 37° C. and 5% CO2.
(§2) Briefly, MCF7 and MCF10A cells were seeded into 96-well plates, incubated for 24 hours, and then was treated with 42 inhibitor candidates. Among the compounds, the multi-AGC kinase inhibitor AT13148 was used as a positive control. Thereafter, the absorbance was measured at 450 nm using a Versamax microplate reader (Molecular Devices, CA, USA), and the results of the experiment were shown in FIG. 1A.
(§3) In order to confirm whether the selected MKI-1 can kill only cancer cells, an experiment was performed by treating with MKI-1 and measuring whether the cell viability of breast cancer cell lines and normal cell lines was changed. WST-8 analysis (Cyto X™ cell viability assay kit, LPS solution, Daejeon, Korea) was performed according to the manufacturer's protocol. Cancer cells MCF7 and BT549 and normal cell line MCF10A cells were inoculated into a 96-well plate, cultured for 24 hours, and then treated with MASTL kinase inhibitors at various concentrations (3.70, 11.11, 33.33 and 100 μM). Thereafter, the absorbance was measured at 450 nm using a Versamax micro plate reader (Molecular Devices, CA, USA), and the results were shown in FIG. 6.
(In general: Tetrazolium assays rely on reduction of a dye to a coloured formazan, in cell work by metabolically active cells.)

Another series deals with AKT. Put plainly: Western blotting of AKT and GSK-3 phosphorylation in MCF7 cells. As to conditions: western blot, FIG. 5. The method, then:
20 μg of protein was separated by SDS-PAGE electrophoresis and transferred to a PVDF membrane, and the following specific antibodies were used: rabbit polyclonal antibody MASTL (Abgent); phospho-ENSA (Ser67)/ARPP19 (Ser62) (#5240), ENSA (#11915S), cleaved PARP (Asp214) (#9541), AKT (#9272), phospho-AKT (ser473) (#9271), phospho-GSK-3α/β (Ser21/9) (#9331), phospho-p70S6K (The 288) (#9205) and phospho-Chk2 (Thr68) (#2661; Cell Signaling Technology, MA); p70S6K (sc-230; Santa Cruz Biotechnology, CA, USA), phospho-H3 (S10) (06-570, Merck, NJ); mouse monoclonal antibody caspase-2 (#2224S). In addition, mouse […] antibody β-actin (C4; Santa Cruz Biotechnology, CA, USA) was used as a loading control, it was washed with 1×PBS/0.1% Tween 20, and the binding protein was detected using HRP-binding secondary antibody and improved chemiluminescence detection system. The remaining conditions of Western blotting were the same as in Example 3, and the image of the band was obtained by Amersham Imager 600 system (GE Healthcare Life Science) or X-Ray film (AG, HealthCare, SC, USA) and it was shown in FIG. 5.
For orientation: A western blot detects proteins with antibodies after separation by electrophoresis.

Series [4] deals with MCF7 cells. Put plainly: WST-8 cell viability assay, breast cancer cell line MCF7. The settings on record: 3.70, 11.11, 33.33 and 100 μM, FIG. 6. The method, then:
as §1, §2, §3

The subject of another series is BT549 cells. Briefly: WST-8 cell viability assay, breast cancer cell line BT549. The settings on record: 3.70, 11.11, 33.33 and 100 μM, FIG. 6. The method, then:
as §1, §3

As for `NC[C@@](O)(c1ccc(Cl)cc1)c1ccc(-c2cn[nH]c2)cc1` [AT13148, reference compound], in the series with MCF7 cells [1], the “size of cancer cell spheroid” value was “significantly reduced”. The tumorsphere diameter result in the series on MCF7 cells [2] is recorded as “significantly decreased”. The “number of cancer cell colonies” value in the series on MCF7 cells [3] is on record as “significantly reduced”. For the same compound, in the series with MCF10A cells, the “cell viability, normal cell line MCF10A” value was “drastically reduced cell viability”. In the series with AKT, the “activation of AKT / phosphorylated GSK-3” value is “strongly inhibited the activation of AKT”. Further, in the series with MCF7 cells [4], the “cell viability, MCF7” value is reported as “drastically reduced cell viability”. For the same compound, the “cell viability, BT549” value in the series on BT549 cells was “drastically reduced cell viability”.
